Test results: patent publication US20240109903A1, “SUBSTITUTED HETEROCYCLES FOR TREATING CANCER” (Northwestern University, priority 2022, published 2024)
Read-outs that look alike come from different tables or passages of the source.

What was measured:
Format in all cases: cell-based
MDA-MB-468 = test: NCI 60 five-dose screen MDA-MB-468; details: Homo sapiens, five-dose
CCRF-CEM = test: NCI 60 five-dose screen CCRF-CEM; details: Homo sapiens, five-dose
MDA-MB-435 = test: NCI 60 five-dose screen MDA-MB-435; details: Homo sapiens, five-dose
NCI-H460 = test: NCI 60 five-dose screen NCI-H460; details: Homo sapiens, five-dose
ACHN = test: NCI 60 five-dose screen ACHN; details: Homo sapiens, five-dose
DU-145 = test: NCI 60 five-dose screen DU-145; details: Homo sapiens, five-dose
PC-3 = test: NCI 60 five-dose screen PC-3; details: Homo sapiens, five-dose
NCI-H226 = test: NCI 60 five-dose screen NCI-H226; details: Homo sapiens, five-dose
SW-620 = test: NCI 60 five-dose screen SW-620; details: Homo sapiens, five-dose
HOP-62 = test: NCI 60 five-dose screen HOP-62; details: Homo sapiens, five-dose
NCI/ADR-RES = test: NCI 60 five-dose screen NCI/ADR-RES; details: Homo sapiens, five-dose
BT-549 = test: NCI 60 five-dose screen BT-549; details: Homo sapiens, five-dose
RPMI-8226 = test: NCI 60 five-dose screen RPMI-8226; details: Homo sapiens, five-dose
NCI-H23 = test: NCI 60 five-dose screen NCI-H23; details: Homo sapiens, five-dose
HS 578T = test: NCI 60 five-dose screen HS 578T; details: Homo sapiens, five-dose
SK-MEL-5 = test: NCI 60 five-dose screen SK-MEL-5; details: Homo sapiens, five-dose
A498 = test: NCI 60 five-dose screen A498; details: Homo sapiens, five-dose
OVCAR-5 = test: NCI 60 five-dose screen OVCAR-5; details: Homo sapiens, five-dose
NCI-H522 = test: NCI 60 five-dose screen NCI-H522; details: Homo sapiens, five-dose
U251 = test: NCI 60 five-dose screen U251; details: Homo sapiens, U-251, five-dose
[1] = test system: MV-4-11 acute myeloid leukemia cells; test: CellTiter-Glo 2.0 cell viability, MV-4-11; details: Homo sapiens
How it was run: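 MV4-11 cells plated at 3,000 cells/well on pre-dispensed compounds and incubated 3 days at 37 °C, 5% CO2. Viability read as ATP-dependent luminescence with CellTiter-Glo 2.0 after 20 min at ambient temperature, followed by regression analysis.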

OVCAR-3 = test: NCI 60 five-dose screen OVCAR-3; details: Homo sapiens, five-dose
UACC-257 = test: NCI 60 five-dose screen UACC-257; details: Homo sapiens, five-dose
UACC-62 = test: NCI 60 five-dose screen UACC-62; details: Homo sapiens, five-dose
SK-MEL-28 = test: NCI 60 five-dose screen SK-MEL-28; details: Homo sapiens, five-dose
[2] = read-out: LC50 (the source's name) (converted)
[3] = read-out: LC50 (the source's name)

## FC(F)(F)c1cc2c(Cl)ncnc2n1CCC1CCOCC1 [NUCC-0226674]
MDA-MB-468
  GI50: 1.66 µM
  IC50: 3.8 µM
  IC (TGI): 3.47 µM
MDA-MB-468; [2]
  CC50: 7.24 µM
CCRF-CEM
  GI50: 1.41 µM
  IC50: 2.51 µM
  IC (TGI): 4.57 µM
CCRF-CEM; [3]
  CC50: ≥ 100 µM
MDA-MB-435
  GI50: 5.01 µM
  IC50: 8.13 µM
  IC (TGI): 18.2 µM
MDA-MB-435; [2]
  CC50: 49 µM
NCI-H460
  GI50: 2.4 µM
  IC50: 3.55 µM
  IC (TGI): 5.62 µM
NCI-H460; [2]
  CC50: 22.4 µM
ACHN
  GI50: 11 µM
  IC50: 18.6 µM
  IC (TGI): 26.3 µM
ACHN; [2]
  CC50: 61.7 µM
DU-145
  GI50: 4.37 µM
  IC50: 7.24 µM
  IC (TGI): 15.1 µM
DU-145; [2]
  CC50: 39.8 µM
PC-3
  GI50: 2.95 µM
  IC50: 4.27 µM
  IC (TGI): 11.2 µM
PC-3; [2]
  CC50: 45.7 µM
NCI-H226
  GI50: 13.8 µM
  IC50: 30.2 µM
  IC (TGI): 28.8 µM
NCI-H226; [2]
  CC50: 58.9 µM
SW-620
  GI50: 12 µM
  IC50: 17.4 µM
  IC (TGI): 28.2 µM
SW-620; [2]
  CC50: 67.6 µM
HOP-62
  GI50: 17 µM
  IC50: 33.1 µM
  IC (TGI): 35.5 µM
HOP-62; [2]
  CC50: 72.4 µM
NCI/ADR-RES
  GI50: 17 µM
  IC50: 30.9 µM
  IC (TGI): 35.5 µM
NCI/ADR-RES; [2]
  CC50: 72.4 µM
BT-549
  GI50: 10.2 µM
  IC50: 23.4 µM
  IC (TGI): 22.4 µM
BT-549; [2]
  CC50: 50.1 µM
RPMI-8226
  GI50: 14.5 µM
  IC50: 25.7 µM
  IC (TGI): 41.7 µM
RPMI-8226; [3]
  CC50: ≥ 100 µM
NCI-H23
  GI50: 2.57 µM
  IC50: 4.9 µM
  IC (TGI): 10 µM
NCI-H23; [2]
  CC50: 34.7 µM
HS 578T
  GI50: 12 µM
  IC50: 70.8 µM
  IC (TGI): 45.7 µM
HS 578T; [3]
  CC50: ≥ 100 µM
SK-MEL-5
  GI50: 2.82 µM
  IC50: 4.37 µM
  IC (TGI): 9.33 µM
SK-MEL-5; [2]
  CC50: 30.2 µM
A498
  GI50: 16.2 µM
  IC50: 30.9 µM
  IC (TGI): 30.2 µM
A498; [2]
  CC50: 55 µM
OVCAR-5
  GI50: 24 µM
  IC50: 45.7 µM
  IC (TGI): 81.3 µM
OVCAR-5; [2]
  CC50: ≥ 100 µM
NCI-H522
  GI50: 1.7 µM
  IC50: 3.39 µM
  IC (TGI): 3.72 µM
NCI-H522; [2]
  CC50: 8.13 µM
U251
  GI50: 2.09 µM
  IC50: 3.24 µM
  IC (TGI): 5.62 µM
U251; [2]
  CC50: 28.2 µM
[1]; MV4-11, 72 h, MV-4-11 cells, 3 days, CellTiter-Glo 2.0, read-out: IC50 (uM) [Cell Type: MV-4-11]
  IC50: 1.29 µM
[1]; MV4-11, bound stated in text, read-out: IC50 against MV-4-11 acute myeloid leukemia cells
  IC50: < 2 µM
OVCAR-3
  GI50: 12.3 µM
  IC50: 23.4 µM
  IC (TGI): 27.5 µM
OVCAR-3; [2]
  CC50: 61.7 µM
UACC-257
  GI50: 3.55 µM
  IC50: 9.33 µM
  IC (TGI): 15.5 µM
UACC-257; [2]
  CC50: 52.5 µM
UACC-62
  GI50: 4.27 µM
  IC50: 8.13 µM
  IC (TGI): 15.8 µM
UACC-62; [2]
  CC50: 40.7 µM
SK-MEL-28
  GI50: 2.63 µM
  IC50: 4.57 µM
  IC (TGI): 6.03 µM
SK-MEL-28; [2]
  CC50: 21.4 µM
